Measured values reported in patent publication EP4737445A1, “NOVEL SATURATED HETEROCYCLE-SUBSTITUTED HETEROARYL-CARBONOHYDRAZONOYL DICYANIDE COMPOUND AND USE THEREOF” (Korea Institute of Science and Technology, priority 2023, dated 2025).

How the values were obtained:
TDP-43 BiFC cells = test: Cell viability (stained nuclei count) in TDP-43-BiFC cells; type: cell-based; conditions: Forskolin-only group = 100%
Description: To screen for new TDP-43 aggregation inhibitors, a TDP-43-BiFC cell model that facilitates observation of TDP-43 aggregate formation in living cells was used. Specifically, TDP-43-BiFC cells were dispensed into a 384-well plate, and the next day, the compounds prepared according to Examples 1 to 46 were treated at concentrations of 3 and 10 µM, respectively, together with Forskolin (treatment concentration 30 µM), which is a compound that induces TDP-43 aggregation by activating the phosphorylation enzyme PKA. After 48 hours, nuclei within cells were stained using Hoechst (treatment concentration 1 µg/mL), and BiFC fluorescence intensity was automatically quantified using Operetta (PerkinElmer) to count the stained nuclei in each well from the entire plate. The group treated only with Forskolin, which induces TDP-43 aggregation, was set as the reference point with 100% TDP-43 aggregation state, and the effect was confirmed by the formula "(BiFC fluorescence intensity by the compounds synthesized according to the Examples of the disclosure - fluorescence intensity of the untreated control group)/(fluorescence intensity of the control group treated only with Forskolin that induces TDP-43 aggregation - fluorescence intensity of the untreated control group) × 100". In addition, the degree of cytotoxicity induced by the newly synthesized compounds was also calculated using the formula "(number of stained nuclei in the compound-treated group/number of stained nuclei in the Forskolin-treated group) × 100", with the group treated only with Forskolin as the reference point at 100% viability. From the treatment results, substances that inhibit intracellular TDP-43 aggregation were identified through screening from a series of candidates based on the criteria of 80% or more TDP-43 aggregation inhibition and 60% cell viability at a compound treatment concentration of 3 µM.
Furthermore, to confirm the TDP-43 aggregation inhibitory effect according to the concentration of the compounds screened in Experimental Example 3, the screened compounds were treated to […] at concentrations of 0.003, 0.01, 0.03, 0.1, 0.3, 1, 3, and 10 µM, respectively, together with Forskolin (treatment concentration 30 µM), which is a TDP-43 aggregation-inducing substance. After 48 hours, cell images were examined to analyze the TDP-43 aggregation reaction and degree of cytotoxicity. The IC50 and toxicity of the compounds were analyzed by nonlinear regression analysis using Prism software (GraphPad). The calculated results for representative compounds are shown in Table 4 below: TDP-43 protein aggregation inhibitory effect and cell viability of novel compounds.

[1] = Liver microsomal stability, human; type: in vitro ADME; conditions: 1 µM compound; 0.5 mg/mL microsomes; NADPH; 30 minutes at 37°C
Description: Liver microsomal stability by the compounds prepared according to Examples 1 to 46 was confirmed. Specifically, four types of liver microsomes (human, dog, rat, and mouse each at 0.5 mg/mL), 0.1 M phosphate buffer solution (pH 7.4), and the compounds at 1 µM concentration were added and pre-incubated at 37°C for 5 minutes, and then NADPH generation system solution was added and incubated at 37°C for an additional 30 minutes. Thereafter, an acetonitrile solution containing an internal standard (chloropropamide) was added to terminate the reaction, and after centrifugation for 5 minutes (14,000 rpm, 4°C), the supernatant was injected into an LC-MS/MS system to analyze the substrate drug, thereby evaluating the metabolic stability of 8 compounds.
The amount of remaining substrate through the reaction was analyzed using a Shimadzu Nexera XR system and TSQ vantage (Thermo). A Kinetex XB-C18 (2.1 × 100 mm, 2.6 µm, particle size; Phenomenex, USA) was used as the HPLC column, and (A) distilled water containing 0.1% formic acid and (B) acetonitrile containing 0.1% formic acid were used as mobile phases. Analyst software (version 1.6.3) and Xcalibur (version 1.6.1) were used for data analysis. The calculated results are shown in Table 5 below: Liver microsomal stability data of novel compounds from […] (human, rat, and mouse).

Tau-BiFC cells = test: Cell viability (stained nuclei count) in Tau-BiFC cells; type: cell-based; conditions: @10 µM; Tau-BiFC cell line; Forskolin-only group = 100%
Description: To screen for new tau aggregation inhibitors, a Tau-BiFC cell model that facilitates observation of tau oligomer formation in living cells was used. Tau-BiFC cells were dispensed into a 384-well plate, and the next day, the compounds prepared according to Examples 1 to 46 were treated at concentrations of 1, 3, and 10 µM, respectively, together with Forskolin (treatment concentration 30 µM), which is a compound that induces tau aggregation by activating the tau phosphorylation enzyme PKA. After 48 hours, nuclei within cells were stained using Hoechst (treatment concentration 2 µg/mL), and BiFC fluorescence intensity was automatically quantified using Operetta (Perkin Elmer) to count the stained nuclei in each well from the entire plate. The group treated only with Forskolin, which induces tau aggregation, was set as the reference point with 100% tau aggregation state, and the effect was confirmed by the formula "BiFC fluorescence intensity by the compounds synthesized according to the Examples of the disclosure/(fluorescence intensity of the control group treated only with Forskolin that induces tau aggregation - fluorescence intensity of the untreated control group) × 100". In addition, the degree of cytotoxicity induced by the newly synthesized compounds was also calculated using the formula "(number of stained nuclei in the compound-treated group/number of stained nuclei in the Forskolin-treated group) × 100", with the group treated only with Forskolin as the reference point at 100% viability. From the treatment results, substances that inhibit intracellular tau aggregation were identified through screening from a series of candidates based on the criteria of 70% or more tau aggregation inhibition and 100% cell viability at a compound treatment concentration of 10 µM.
To confirm the tau aggregation inhibitory effect according to the concentration of the compounds screened in Experimental Example 1, the screened compounds were treated to Tau-BiFC cells at concentrations of 0.03, 0.1, 0.3, 1, 3, 10, and 30 µM, respectively, together with Forskolin (treatment concentration 30 µM), which is a tau aggregation-inducing substance. After 48 hours, cell images were examined to analyze the tau aggregation reaction and degree of cytotoxicity. The IC50 and toxicity of the compounds were analyzed by nonlinear regression analysis using Prism software (GraphPad). The calculated results for representative compounds are shown in Table 3 below: Tau aggregation inhibitory effect and cell viability of novel compounds.

| SMILES | Cell viability (%) (@ 3 uM) (TDP-43 BiFC cells) | Human microsomes (% remaining) [1] [% remaining] | Cell viability (% @10µM) (Tau-BiFC cells) [%] |
| --- | --- | --- | --- |
| CC1COCCN1c1nc2ccc(NN=C(C#N)C#N)cc2s1 (centres unmarked) [Compound 13, (2-(3-methylmorpholino)benzo[d]thiazol-6-yl)carbonohydrazonoyl dicyanide] | 63.6 | 79.9 | 99 |
| N#CC(C#N)=NNc1ccc2nc(N3CCOCC3)oc2c1 [Compound 4, (2-morpholinobenzo[d]oxazol-6-yl)carbonohydrazonoyl dicyanide] | 104.2 | 93.5 | 100 |
| CCn1c(N2CCOCC2)nc2cc(NN=C(C#N)C#N)ccc21 [Compound 33, (1-ethyl-2-morpholino-1H-benzo[d]imidazol-5-yl)carbonohydrazonoyl dicyanide] | 55.0 | 94.9 | 97 |
| Cn1c(N2C3CCC2COC3)nc2cc(NN=C(C#N)C#N)ccc21 [Compound 35, (2-(3-oxa-8-azabicyclo[3.2.1]octan-8-yl)-1-methyl-1H-benzo[d]imidazol-5-yl)carbonohydrazonoyl dicyanide] | 67.4 | 94.3 | 100 |
| CC(C)N1CCN(c2nc3ccc(NN=C(C#N)C#N)cc3s2)CC1 [Compound 27, (2-(4-isopropylpiperazin-1-yl)benzo[d]thiazol-6-yl)carbonohydrazonoyl dicyanide] | 104.8 | – | 99 |
| CC(C)N1CCN(c2nc3ccc(NN=C(C#N)C#N)cc3o2)CC1 [Compound 28, (2-(4-isopropylpiperazin-1-yl)benzo[d]oxazol-6-yl)carbonohydrazonoyl dicyanide] | 113.4 | 11.7 | 99 |
| Cn1c(N2C3CCC2COC3)nc2ccc(NN=C(C#N)C#N)cc21 [Compound 34, (2-(3-oxa-8-azabicyclo[3.2.1]octan-8-yl)-1-methyl-1H-benzo[d]imidazol-6-yl)carbonohydrazonoyl dicyanide] | 59.5 | 88.9 | 100 |
| N#CC(C#N)=NNc1ccc2nc(N3CCNCC3)sc2c1 [Compound 24, (2-(piperazin-1-yl)benzo[d]thiazol-6-yl)carbonohydrazonoyl dicyanide] | 83.1 | – | 95 |
| Cn1c(N2CCOCC2)nc2cc(NN=C(C#N)C#N)ccc21 [Compound 6, (1-methyl-2-morpholino-1H-benzo[d]imidazol-5-yl)carbonohydrazonoyl dicyanide] | 98.1 | 90 | 104 |
| CCn1c(N2CCOCC2)nc2ccc(NN=C(C#N)C#N)cc21 [Compound 32, (1-ethyl-2-morpholino-1H-benzo[d]imidazol-6-yl)carbonohydrazonoyl dicyanide] | 59.7 | 95.5 | 98 |
| CN1CCN(c2nc3ccc(NN=C(C#N)C#N)cc3o2)CC1 [Compound 14, (2-(4-methylpiperazin-1-yl)benzo[d]oxazol-6-yl)carbonohydrazonoyl dicyanide] | 101.4 | – | 100 |
| COC1CCN(c2nc3ccc(NN=C(C#N)C#N)cc3s2)CC1 [Compound 9, (2-(4-methoxypiperidin-1-yl)benzo[d]thiazol-6-yl)carbonohydrazonoyl dicyanide] | 76.2 | 5.0 | 100 |
| CC1CN(C(=O)Nc2nc3ccc(NN=C(C#N)C#N)cc3s2)CC(C)O1 (centres unmarked) [Compound 39, (2-(2,6-dimethylmorpholine-4-carboxamido)benzo[d]thiazol-6-yl)carbonohydrazonoyl dicyanide] | 117.7 | 83.8 | 98 |
| CC1CN(c2nc3ccc(NN=C(C#N)C#N)cc3s2)CCO1 (centres unmarked) [Compound 12, (2-(2-methylmorpholino)benzo[d]thiazol-6-yl)carbonohydrazonoyl dicyanide] | 73.0 | 62.7 | 102 |
| CC(=O)N1CCN(c2nc3ccc(NN=C(C#N)C#N)cc3s2)CC1 [Compound 30, (2-(4-acetylpiperazin-1-yl)benzo[d]thiazol-6-yl)carbonohydrazonoyl dicyanide] | 83.1 | > 100 | 99 |
| CN1CCN(c2nc3ccc(NN=C(C#N)C#N)cc3s2)CC1 [Compound 8, (2-(4-methylpiperazin-1-yl)benzo[d]thiazol-6-yl)carbonohydrazonoyl dicyanide] | 83.0 | 83.9 | 101 |
| N#CC(C#N)=NNc1ccc2nc(N3CCNCC3)oc2c1 [Compound 25, (2-(piperazin-1-yl)benzo[d]oxazol-6-yl)carbonohydrazonoyl dicyanide] | 76.7 | – | 94 |
